ChEMBL document CHEMBL1201862, “PubChem BioAssay data set” (2004)
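Interpolation was linear, between the two tested concentrations surrounding the appropriate level; five concentrations were tested over 48 hours in 96-well plates. GI50 is the concentration that inhibits growth by half.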 Activity calls are given as the source filed them. No stated cut-off is given here; in the data, active = GI50 up to about 1.1 µM and inactive = higher.

What was measured:
Assay in all cases: NCI anticancer screen, dose series, 48 h
RXF 393 = tested on: RXF 393
MDA-N = tested on: MDA-N
IGROV-1 = tested on: IGROV-1
Malme-3M = tested on: Malme-3M
MDA-MB-435 = tested on: MDA-MB-435
HT-29 = tested on: HT-29
MCF7 = tested on: MCF7
SNB-75 = tested on: SNB-75
SN12C = tested on: SN12C
SK-OV-3 = tested on: SK-OV-3
NCI/ADR-RES = tested on: NCI/ADR-RES
HCC 2998 = tested on: HCC 2998
OVCAR-4 = tested on: OVCAR-4
SW-620 = tested on: SW-620
HCT-15 = tested on: HCT-15
ACHN = tested on: ACHN
SK-MEL-28 = tested on: SK-MEL-28
SNB-19 = tested on: SNB-19
SF-539 = tested on: SF-539
OVCAR-3 = tested on: OVCAR-3

Cc1cc(C)c(C2=NOC(c3ccccc3)(c3cc(=O)n(-c4ccccc4)s3)O2)c(C)c1 (configuration not stated)
GI50 (RXF 393): 17.3 µM (inactive) | GI50 (MDA-N): 38.8 µM (inactive) | GI50 (IGROV-1): 37.1 µM (inactive) | GI50 (Malme-3M): 18.8 µM (inactive) | GI50 (MDA-MB-435): 48.3 µM (inactive) | GI50 (HT-29): 18.8 µM (inactive) | GI50 (MCF7): 18.6 µM (inactive) | GI50 (SNB-75): 26.5 µM (inactive) | GI50 (SN12C): 33 µM (inactive) | GI50 (SK-OV-3): > 100 µM (inactive) | GI50 (NCI/ADR-RES): 23.3 µM (inactive) | GI50 (HCC 2998): 32.5 µM (inactive) | GI50 (OVCAR-4): 53.1 µM (inactive) | GI50 (SW-620): 26.4 µM (inactive) | GI50 (HCT-15): 19.3 µM | GI50 (ACHN): 24.2 µM (inactive) | GI50 (SK-MEL-28): 32 µM (inactive) | GI50 (SNB-19): 50.6 µM (inactive)

COc1cc2c(cc1OCc1ccccc1)NC(=O)[C@@H]1C[C@@H](O)CN1C2=O
GI50 (RXF 393): > 100 µM (inactive) | GI50 (MDA-N): > 100 µM (inactive) | GI50 (IGROV-1): > 100 µM (inactive) | GI50 (Malme-3M): > 100 µM (inactive) | GI50 (MDA-MB-435): > 100 µM (inactive) | GI50 (SF-539): > 100 µM (inactive) | GI50 (HT-29): > 100 µM (inactive) | GI50 (MCF7): > 100 µM (inactive) | GI50 (SNB-75): 35.6 µM (inactive) | GI50 (SN12C): > 100 µM (inactive) | GI50 (SK-OV-3): > 100 µM (inactive) | GI50 (OVCAR-3): > 100 µM (inactive) | GI50 (NCI/ADR-RES): > 100 µM (inactive) | GI50 (HCC 2998): > 100 µM (inactive) | GI50 (OVCAR-4): > 100 µM (inactive) | GI50 (SW-620): > 100 µM (inactive) | GI50 (HCT-15): > 100 µM | GI50 (ACHN): > 100 µM (inactive) | GI50 (SK-MEL-28): > 100 µM (inactive) | GI50 (SNB-19): > 100 µM (inactive)

COc1ccc(C(OCC2OC(n3cnc4c(=O)n(Cc5ccccc5[N+](=O)[O-])nnc43)C(O)C2O)(c2ccccc2)c2ccc(OC)cc2)cc1 (configuration not stated)
GI50 (RXF 393): 11.5 µM (inactive) | GI50 (MDA-N): 7.52 µM (inactive) | GI50 (IGROV-1): 10.9 µM (inactive) | GI50 (Malme-3M): 14.7 µM (inactive) | GI50 (MDA-MB-435): 10.4 µM (inactive) | GI50 (SF-539): 11.8 µM (inactive) | GI50 (HT-29): 4.31 µM (inactive) | GI50 (MCF7): 4.28 µM (inactive) | GI50 (SNB-75): 45.7 µM (inactive) | GI50 (SN12C): 6.9 µM (inactive) | GI50 (SK-OV-3): 20.4 µM (inactive) | GI50 (OVCAR-3): 9.82 µM (inactive) | GI50 (NCI/ADR-RES): 19.1 µM (inactive) | GI50 (HCC 2998): 6.97 µM (inactive) | GI50 (OVCAR-4): 20.6 µM (inactive) | GI50 (SW-620): 17.6 µM (inactive) | GI50 (HCT-15): 9.31 µM | GI50 (ACHN): 14 µM (inactive) | GI50 (SK-MEL-28): 16.7 µM (inactive) | GI50 (SNB-19): 44.9 µM (inactive)

O=C1C=C(c2ccccc2)O/C1=C/C(=O)c1ccc(Cl)cc1
GI50 (RXF 393): 18.9 µM (inactive) | GI50 (MDA-N): 16.1 µM (inactive) | GI50 (IGROV-1): 18.3 µM (inactive) | GI50 (Malme-3M): 17.2 µM (inactive) | GI50 (MDA-MB-435): 15.2 µM (inactive) | GI50 (SF-539): 17.8 µM (inactive) | GI50 (HT-29): 18.2 µM (inactive) | GI50 (MCF7): 16.5 µM (inactive) | GI50 (SNB-75): 10.6 µM (inactive) | GI50 (SN12C): 16 µM (inactive) | GI50 (SK-OV-3): 36.1 µM (inactive) | GI50 (OVCAR-3): 17.5 µM (inactive) | GI50 (NCI/ADR-RES): 22.1 µM (inactive) | GI50 (HCC 2998): 15.4 µM (inactive) | GI50 (OVCAR-4): 15.6 µM (inactive) | GI50 (SW-620): 11.7 µM (inactive) | GI50 (HCT-15): 22 µM | GI50 (ACHN): 16.6 µM (inactive) | GI50 (SK-MEL-28): 18 µM (inactive) | GI50 (SNB-19): 35.5 µM (inactive)

CN(C)C(Cc1c[nH]cn1)C(=O)N1CCCC1C(N)=O (configuration not stated)
GI50 (RXF 393): > 100 µM (inactive) | GI50 (MDA-N): > 100 µM (inactive) | GI50 (IGROV-1): > 100 µM (inactive) | GI50 (Malme-3M): > 100 µM (inactive) | GI50 (MDA-MB-435): > 100 µM (inactive) | GI50 (HT-29): > 100 µM (inactive) | GI50 (MCF7): > 100 µM (inactive) | GI50 (SNB-75): > 100 µM (inactive) | GI50 (SN12C): > 100 µM (inactive) | GI50 (SK-OV-3): > 100 µM (inactive) | GI50 (OVCAR-3): > 100 µM (inactive) | GI50 (NCI/ADR-RES): > 100 µM (inactive) | GI50 (HCC 2998): > 100 µM (inactive) | GI50 (OVCAR-4): > 100 µM (inactive) | GI50 (SW-620): > 100 µM (inactive) | GI50 (HCT-15): > 100 µM | GI50 (ACHN): > 100 µM (inactive) | GI50 (SK-MEL-28): > 100 µM (inactive) | GI50 (SNB-19): > 100 µM (inactive)

COc1ccc(S(=O)(=O)O)cc1-n1nc(C(=O)Nc2ccccc2)n[n+]1-c1cc(S(=O)(=O)[O-])ccc1OC
GI50 (RXF 393): > 100 µM (inactive) | GI50 (MDA-N): > 100 µM (inactive) | GI50 (IGROV-1): > 100 µM (inactive) | GI50 (Malme-3M): > 100 µM (inactive) | GI50 (MDA-MB-435): > 100 µM (inactive) | GI50 (SF-539): > 100 µM (inactive) | GI50 (HT-29): > 100 µM (inactive) | GI50 (MCF7): > 100 µM (inactive) | GI50 (SNB-75): > 100 µM (inactive) | GI50 (SN12C): > 100 µM (inactive) | GI50 (SK-OV-3): > 100 µM (inactive) | GI50 (OVCAR-3): > 100 µM (inactive) | GI50 (NCI/ADR-RES): > 100 µM (inactive) | GI50 (HCC 2998): > 100 µM (inactive) | GI50 (OVCAR-4): > 100 µM (inactive) | GI50 (SW-620): > 100 µM (inactive) | GI50 (HCT-15): > 100 µM | GI50 (ACHN): > 100 µM (inactive) | GI50 (SK-MEL-28): > 100 µM (inactive) | GI50 (SNB-19): > 100 µM (inactive)

CCN(CC)CCNc1ccc2ncn3c4c(OC)ccc(O)c4c(=O)c1c23
GI50 (RXF 393): 5.85 µM (inactive) | GI50 (MDA-N): 21.1 µM (inactive) | GI50 (IGROV-1): 5.56 µM (inactive) | GI50 (Malme-3M): 19.4 µM (inactive) | GI50 (MDA-MB-435): 24.9 µM (inactive) | GI50 (SF-539): 6.98 µM (inactive) | GI50 (HT-29): 7.4 µM (inactive) | GI50 (MCF7): 3.52 µM (inactive) | GI50 (SNB-75): 46.3 µM (inactive) | GI50 (SN12C): 4.82 µM (inactive) | GI50 (SK-OV-3): 66.2 µM (inactive) | GI50 (OVCAR-3): 31.2 µM (inactive) | GI50 (NCI/ADR-RES): 2.54 µM (inactive) | GI50 (HCC 2998): 5.25 µM (inactive) | GI50 (OVCAR-4): 6.21 µM (inactive) | GI50 (SW-620): 3.09 µM (inactive) | GI50 (HCT-15): 3.63 µM | GI50 (ACHN): 5.94 µM (inactive) | GI50 (SK-MEL-28): 12.3 µM (inactive) | GI50 (SNB-19): 19.6 µM (inactive)
